# According to patent US20020137929A1, “1 - (3-heterocyclylphenyl) isothiourea, -isourea, -guanidine and -amidine herbicidal agents” (Intellectual Property Department, BASF Aktiengesellschaft, priority 1998, published 2002):
# How the values were obtained:
# [1] = system: SETVI (Foxtail, Green); assay: Preemergence herbicidal evaluation; format: in vivo, Setaria viridis; conditions: rated 4-5 weeks after treatment
# Procedure, shortened: (§1)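 Each species is sown separately in potting soil over roughly an inch of soil before any emergence. The soil surface then receives an aqueous acetone spray delivering about 0.0156 to 0.500 kg/ha of compound. After four to five weeks, injury is scored from 0 to 9 relative to a control.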
# [2] = system: CYPSE (Flatsedge); assay: Preemergence weed control under flooded paddy conditions; format: in vivo, Cyperus serotinus; conditions: rated 3-4 weeks after treatment
# Procedure, shortened: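 Using flooded silt loam (water 1.5 to 3 cm deep), seeds sown in the top 0.5 cm were exposed preemergence to compound pipetted into the flood at about 0.0313 to 0.500 kg/ha. Effects were scored 0-9 by eye three to four weeks later.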
# [3] = system: TRZAWR (Wheat, Winter, cv Riband); assay: Preemergence herbicidal evaluation; format: in vivo, Triticum aestivum; conditions: rated 4-5 weeks after treatment
# Procedure, shortened: as §1
# [4] = system: CYPIR (Rice Flatsedge); assay: Preemergence weed control under flooded paddy conditions; format: in vivo, Cyperus iria; conditions: rated 3-4 weeks after treatment
# Procedure, shortened: (§2)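 First, seeds or propagules go into the top 0.5 cm of silt loam; next, water is held 1.5 to 3 cm over the soil; then compound (50/50 acetone/water) is pipetted into it at about 0.0313 to 0.500 kg/ha; finally plants are rated visually 0-9 after three to four weeks.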
# [5] = system: ECHCG (Barnyardgrass); assay: Preemergence herbicidal evaluation; format: in vivo, Echinochloa crus-galli; conditions: rated 4-5 weeks after treatment
# Procedure, shortened: as §1
# [6] = system: ZEAMX (Corn, Field); assay: Preemergence herbicidal evaluation; format: in vivo, Zea mays; conditions: rated 4-5 weeks after treatment
# Procedure, shortened: as §1
# [7] = system: ORYSAT (Rice, Tebonnet); assay: Postemergence herbicidal evaluation; format: in vivo, Oryza sativa, (L.) Tebonnet; conditions: postemergence
# Procedure, shortened: (§3)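 Visual 0–9 rating versus control (stand, vigor, malformation, size, chlorosis, overall appearance), taken four to five weeks post-spray. Two-week-old seedlings received roughly 0.0156–0.500 kg/ha active in acetone/water (50/50) with 0.5% TWEEN 20 via nozzle at 40 psi.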
# [8] = system: ECHORC (Watergrass (Calif.)); assay: Preemergence weed control under flooded paddy conditions; format: in vivo, Echinochloa oryzoides; conditions: rated 3-4 weeks after treatment
# Procedure, shortened: as §2
# [9] = system: ZEAMX (Corn, Field); assay: Postemergence herbicidal evaluation; format: in vivo, Zea mays; conditions: postemergence
# Procedure, shortened: as §3
# [10] = system: SETVI (Foxtail, Green); assay: Postemergence herbicidal evaluation; format: in vivo, Setaria viridis; conditions: postemergence
# Procedure, shortened: as §3
# [11] = rate 0.0625 kg/ha, rating scale 0-9
# [12] = rate 0.1250 kg/ha, rating scale 0-9
# [13] = rate 0.2500 kg/ha, rating scale 0-9
smiles,measurement,setting,value
"COCCN1C(=O)CSC1=Nc1cc(-n2c(=O)cc(C(F)(F)F)n(C)c2=O)c(F)cc1Cl [Compound 155, 3-{4-Chloro-2-fluoro-5-{[3-(2-methoxyethyl)-4-oxo-2-thiazolidinylidene]amino}phenyl}-1-methyl-6-(trifluoromethyl)-2,4(1H,3H)-pyrimidinedione]",Preemergence herbicidal rating SETVI,[1]; [11],0.0
same,Preemergence herbicidal rating SETVI,[1]; [12],0.0
same,Preemergence herbicidal rating SETVI,[1]; [13],0.0
same,"herbicidal effect rating, CYPSE",[2]; 0.0313 kg/ha,0.0
same,"herbicidal effect rating, CYPSE",[2]; 0.0625 kg/ha,0.0
same,"herbicidal effect rating, CYPSE",[2]; 0.1250 kg/ha,0.0
same,Preemergence herbicidal rating TRZAWR,[3]; [11],0.0
same,Preemergence herbicidal rating TRZAWR,[3]; [12],0.0
same,Preemergence herbicidal rating TRZAWR,[3]; [13],0.0
same,"herbicidal effect rating, CYPIR",[4]; 0.0313 kg/ha,0.0
same,"herbicidal effect rating, CYPIR",[4]; 0.0625 kg/ha,0.0
same,"herbicidal effect rating, CYPIR",[4]; 0.1250 kg/ha,0.0
same,"herbicidal effect rating, CYPIR",[4]; 0.2500 kg/ha,0.0
same,Preemergence herbicidal rating ECHCG,[5]; [11],0.0
same,Preemergence herbicidal rating ECHCG,[5]; [12],0.0
same,Preemergence herbicidal rating ECHCG,[5]; [13],0.0
same,Preemergence herbicidal rating ZEAMX,[6]; [11],0.0
same,Preemergence herbicidal rating ZEAMX,[6]; [12],0.0
same,Preemergence herbicidal rating ZEAMX,[6]; [13],2.0
same,herbicidal rating ORYSAT,[7]; rate 0.0156 kg/ha,0.0
same,herbicidal rating ORYSAT,[7]; rate 0.0313 kg/ha,0.0
same,herbicidal rating ORYSAT,[7]; rate 0.0625 kg/ha,0.0
same,"herbicidal effect rating, ECHORC",[8]; 0.0313 kg/ha,4.0
same,"herbicidal effect rating, ECHORC",[8]; 0.0625 kg/ha,4.0
same,"herbicidal effect rating, ECHORC",[8]; 0.1250 kg/ha,4.0
same,"herbicidal effect rating, ECHORC",[8]; 0.2500 kg/ha,4.0
same,herbicidal rating ZEAMX,[9]; rate 0.0156 kg/ha,4.0
same,herbicidal rating ZEAMX,[9]; rate 0.0313 kg/ha,4.0
same,herbicidal rating ZEAMX,[9]; rate 0.0625 kg/ha,4.0
same,herbicidal rating SETVI,[10]; rate 0.0156 kg/ha,0.0
same,herbicidal rating SETVI,[10]; rate 0.0313 kg/ha,0.0
same,herbicidal rating SETVI,[10]; rate 0.0625 kg/ha,0.0
"COC(=O)CSCCN1C(=O)CSC1=Nc1cc(-n2c(=O)cc(C(F)(F)F)n(C)c2=O)c(F)cc1Cl [Compound 158, Methyl {{2-{2-{{2-chloro-5-[3,6-dihydro-3-methyl-2,6-dioxo-4-(trifluoromethyl)-1(2H)-pyrimidinyl]-4-fluorophenyl}imino}-4-oxo-3-thiazolidinyl}ethyl}-thio}acetate]",Preemergence herbicidal rating SETVI,[1]; 0.0156 kg/ha,7.0
same,Preemergence herbicidal rating SETVI,[1]; 0.0313 kg/ha,9.0
same,Preemergence herbicidal rating SETVI,[1]; 0.0625 kg/ha,9.0
same,Preemergence herbicidal rating SETVI,[1]; [12],9.0
same,Preemergence herbicidal rating SETVI,[1]; [13],9.0
same,"herbicidal effect rating, CYPSE",[2]; 0.0313 kg/ha,5.0
same,"herbicidal effect rating, CYPSE",[2]; 0.0625 kg/ha,9.0
same,"herbicidal effect rating, CYPSE",[2]; 0.1250 kg/ha,9.0
same,"herbicidal effect rating, CYPSE",[2]; 0.2500 kg/ha,9.0
same,Preemergence herbicidal rating TRZAWR,[3]; 0.0156 kg/ha,1.0
same,Preemergence herbicidal rating TRZAWR,[3]; 0.0313 kg/ha,4.0
same,Preemergence herbicidal rating TRZAWR,[3]; 0.0625 kg/ha,5.0
same,Preemergence herbicidal rating TRZAWR,[3]; [12],7.0
same,Preemergence herbicidal rating TRZAWR,[3]; [13],7.0
same,"herbicidal effect rating, CYPIR",[4]; 0.0313 kg/ha,9.0
same,"herbicidal effect rating, CYPIR",[4]; 0.0625 kg/ha,9.0
same,"herbicidal effect rating, CYPIR",[4]; 0.1250 kg/ha,9.0
same,"herbicidal effect rating, CYPIR",[4]; 0.2500 kg/ha,9.0
same,Preemergence herbicidal rating ECHCG,[5]; 0.0156 kg/ha,2.0
same,Preemergence herbicidal rating ECHCG,[5]; 0.0313 kg/ha,7.0
same,Preemergence herbicidal rating ECHCG,[5]; 0.0625 kg/ha,9.0
same,Preemergence herbicidal rating ECHCG,[5]; [12],9.0
same,Preemergence herbicidal rating ECHCG,[5]; [13],9.0
same,Preemergence herbicidal rating ZEAMX,[6]; 0.0156 kg/ha,5.0
same,Preemergence herbicidal rating ZEAMX,[6]; 0.0313 kg/ha,7.0
same,Preemergence herbicidal rating ZEAMX,[6]; 0.0625 kg/ha,8.0
same,Preemergence herbicidal rating ZEAMX,[6]; [12],9.0
same,Preemergence herbicidal rating ZEAMX,[6]; [13],9.0
same,herbicidal rating ORYSAT,[7]; rate 0.0156 kg/ha,2.0
same,herbicidal rating ORYSAT,[7]; rate 0.0313 kg/ha,2.5
same,herbicidal rating ORYSAT,[7]; rate 0.0625 kg/ha,3.5
same,"herbicidal effect rating, ECHORC",[8]; 0.0313 kg/ha,9.0
same,"herbicidal effect rating, ECHORC",[8]; 0.0625 kg/ha,9.0
same,"herbicidal effect rating, ECHORC",[8]; 0.1250 kg/ha,9.0
same,"herbicidal effect rating, ECHORC",[8]; 0.2500 kg/ha,9.0
same,herbicidal rating ZEAMX,[9]; rate 0.0156 kg/ha,4.0
same,herbicidal rating ZEAMX,[9]; rate 0.0313 kg/ha,4.5
same,herbicidal rating ZEAMX,[9]; rate 0.0625 kg/ha,5.5
same,herbicidal rating SETVI,[10]; rate 0.0156 kg/ha,2.0
same,herbicidal rating SETVI,[10]; rate 0.0313 kg/ha,3.0
same,herbicidal rating SETVI,[10]; rate 0.0625 kg/ha,9.0
